Results: US11186581B2, “2-(1,3-dimethyl-2,6-dioxo-1,2,3,6-tetrahydro-7H-purin-7-yl)-N-(6-(2-hydroxyphenyl)pyridazin-3-yl)acetamide as a Wnt pathway modulator” (Agency for Science, Technology and Research, priority 2017, dated 2021)
Like-named read-outs stand apart in the source and are kept apart here.

Experiments:
[1] = Plasma pharmacokinetics after single intravenous and oral dose; assay type: in vivo, male BALB/c mice; conditions: male, BALB/c, mouse; for concentration at 24 hr: average of two values
Experimental: The objective of this study was to investigate the plasma pharmacokinetics of Compound 1 in male BALB/c mice following a single intravenous and oral dose administration. A group of eighteen male mice were divided in to two groups as Group 1 and Group 2 with nine mice in each group.
Animals in Group 1 were administered intravenously with Compound 1 solution formulation in 7.5% NMP, 5% Solutol HS-15 and 87.5% normal Saline at a dose of 1 mg/kg.
Animals in Group 2 were administered orally with Compound 1 solution formulation in 7.5% NMP, 5% Solutol HS-15 and 87.5% normal Saline at a dose of 5 mg/kg.
Blood samples (approximately 60 μL) were collected under light isoflurane anesthesia from retro orbital plexus at predose, 0.08, 0.25, 0.5, 1, 2, 4, 8 and 24 hr (IV) and predose, 0.25, 0.5, 1, 2, 4, 6, 8 and 24 hr (PO). During each sampling point, blood samples were collected in labeled pre-chilled tubes containing K2EDTA (20% K2EDTA solution) as an anticoagulant and protease inhibitor (10 μL of 10× solution/100 μL of blood). Low temperature was maintained till storage of plasma at −70° C. Plasma samples were separated by centrifugation of whole blood and stored below −70° C. until bioanalysis. All samples were processed for analysis by protein precipitation using acetonitrile (ACN) and analyzed with fit-for-purpose LC/MS/MS method (Lower limit of quantitation (LLOQ: 1.02 ng/mL). Pharmacokinetic parameters were calculated using the non-compartmental analysis tool of Phoenix WinNonlin® (Version 6.3). The overall pharmacokinetic parameters are summarized below:
The objective of the study is to determine the plasma pharmacokinetics of Compound 1 in male BALB/c mice following a single intravenous (1 mg/kg) and oral (5 mg/kg) administration in presence of a protease inhibitor.
(§1) A group of eighteen male mice were divided in to two groups as Group 1 and Group 2 with nine mice in each group. Animals in Group 1 were administered intravenously with Compound 1 solution formulation in 7.5% NMP, 5% Solutol HS-15 and 87.5% normal Saline at a dose of 1 mg/kg. Animals in Group 2 were administered orally with Compound 1 solution formulation in 7.5% NMP, 5% Solutol HS and 87.5% normal Saline at a dose of 5 mg/kg.
The dosing volume administered was 5 mL/kg for intravenous and 10 mL/kg for oral administration.
Blood samples (approximately 60 μL) were collected from retro-orbital plexus of three mice at each time point [predose, 0.08, 0.25, 0.5, 1, 2, 4, 8 and 24 hr (IV) and predose, 0.25, 0.5, 1, 2, 4, 6, 8 and 24 hr (PO)]. During each sampling point, blood samples were collected in labeled pre-chilled tubes containing K2EDTA (20% K2EDTA solution) as an anticoagulant and protease inhibitor (10 μL of 10× solution/100 μL of blood). Low temperature was maintained till storage of plasma at −70° C. Plasma was immediately harvested from the blood by centrifugation at 4000 rpm for 10 min at 4±2° C. and stored below −70° C. until bioanalysis. Preparation of protease inhibitor solution: One tablet of sigmaFAST (Product Code: 58820) was reconstituted into 10 mL of Milli-Q water to prepare 10× solution.
Concentrations of Compound 1 in mouse plasma samples were determined by fit-for-purpose LC-MS/MS method. The sample processing and extraction procedure, chromatographic and mass spectrometric conditions are provided below:
A 25 μL of study sample (DF was applied for few samples) or spiked plasma calibration standard was added to individual pre-labeled micro-centrifuge tubes followed by 100 μL of internal standard prepared in acetonitrile (Glipizide, 500 ng/mL) was added except for blank, where 100 μL of acetonitrile was added. Samples were vortexed for 5 minutes. Samples were centrifuged for 10 minutes at a speed of 4000 rpm at 4° C. Following centrifugation, 100 μL of clear supernatant was transferred in 96 well plates and analyzed using LC-MS/MS.
Non-Compartmental-Analysis tool of Phoenix WinNonlin® (Version 6.3) was used to assess the pharmacokinetic parameters. […]

[2] = Clinical observations after intravenous and oral dose administration; assay type: in vivo, male BALB/c mice; conditions: after IV 1 mg/kg and PO 5 mg/kg single dose
Experimental: as §1

[3] = plasma, iv, 1 mg/kg, IV 1 mg/kg, read-out: Plasma concentration, Mean
[4] = plasma, po, 5 mg/kg, PO 5 mg/kg, read-out: Plasma concentration, Mean
[5] = plasma, po, 5 mg/kg, PO 5 mg/kg, read-out: Plasma concentration, individual animals

concentration at 4 hr [1, 3]: 34.7 ng/mL | concentration at 4 hr ([1]; plasma, iv, 1 mg/kg, IV 1 mg/kg, read-out: Plasma concentration, individual animals): 39.2 ng/mL | concentration at 8 hr [1, 3]: 14.5 ng/mL | concentration at 24 hr ([1]; plasma, iv, 1 mg/kg, IV 1 mg/kg): 1.23 ng/mL | concentration at 0.25 hr [1, 4]: 1860 ng/mL | concentration at 0.25 hr [1, 5]: 1690 ng/mL | concentration at 0.5 hr ([1]; plasma, po, 5 mg/kg, PO 5 mg/kg, 0.5 hr, read-out: Plasma concentration, Mean): 1710 ng/mL | concentration at 1 hr [1, 4]: 457 ng/mL | concentration at 1 hr [1, 5]: 462 ng/mL | concentration at 2 hr [1, 4]: 411 ng/mL | concentration at 2 hr [1, 5]: 535 ng/mL | concentration at 4 hr [1, 4]: 217 ng/mL | concentration at 6 hr [1, 4]: 91.8 ng/mL | concentration at 6 hr [1, 5]: 83.2 ng/mL | concentration at 8 hr [1, 4]: 45.8 ng/mL | concentration at 8 hr [1, 5]: 43 ng/mL | concentration at 24 hr ([1]; plasma, po, 5 mg/kg, PO 5 mg/kg): 1.8 ng/mL | half-life ([1]; plasma, IV 1 mg/kg, terminal elimination half-life, read-out: T1/2 (converted)): 4.24 h | Vd ([1]; plasma, IV 1 mg/kg, read-out: Vss): 1.2 L/kg | Tmax ([1]; plasma, PO 5 mg/kg): 0.25 h | bioavailability ([1]; plasma, PO 5 mg/kg vs IV 1 mg/kg, solution, from AUClast, read-out: % F (oral bioavailability)): 42% | half-life ([1]; plasma, PO 5 mg/kg, read-out: T1/2 (expressed as T1/2Z) (converted)): 3.26 h | AUC(0-inf) ([1]; IV 1 mg/kg, plasma): 1490 ng·h/mL | AUC(0-t) ([1]; IV 1 mg/kg, plasma): 1480 ng·h/mL | clearance ([1]; IV 1 mg/kg, plasma clearance): 11.2 mL/min/kg | C0 ([1]; IV 1 mg/kg, plasma, read-out: C0 (back extrapolated conc.)): 2750 ng/mL | AUC(0-inf) ([1]; PO 5 mg/kg, plasma): 3120 ng·h/mL | AUC(0-t) ([1]; PO 5 mg/kg, plasma): 3110 ng·h/mL | Cmax ([1]; PO 5 mg/kg, plasma): 1860 ng/mL | Clinical signs [2]: normal and without any clinical signs
Compound: Cn1c(=O)c2c(ncn2CC(=O)Nc2ccc(-c3ccccc3O)nn2)n(C)c1=O [Compound 1, 2-(1,3-dimethyl-2,6-dioxo-1,2,3,6-tetrahydro-7H-purin-7-yl)-N-(6-(2-hydroxyphenyl)pyridazin-3-yl)acetamide]
